Measurements reported in patent US20150299143A1, “SUBSTITUTED TRIAZOLE AND IMIDAZOLE COMPOUNDS” (HOFFMANN-LA ROCHE INC., priority 2012, published 2015).

Legend:
[1] = system: DSS-induced colitis model in mice; settings: cited from earlier work
[2] = system: Th1/17 differentiation, B cell effector functions and production of inflammatory cytokines (IL-6, TNF-α, IL-23); settings: cited from earlier work
[3] = system: mouse CAIA and CIA arthritis models; settings: cited from earlier work
MRL/lpr lupus-prone mice = settings: cited from earlier work
β 1c (caspase-like) = molecular target: T1, β 1c (caspase-like) (Homo sapiens, UniProt P28072+Q99436); assay: Cell-Based Proteasome subunit activity/selectivity assay, β1c, substrate (LLE)2Rh110; settings: Ramos cells; substrate (LLE)2Rh110 (β1c); highest concentration tested 20 μM; read-out: Ic50:ramos:rh110-(lle)2
T1 construct: protease activity associated with the proteasome complex in cultured cells; endogenous in cells; host or cells: Ramos cells
Outline: (§1)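 Subunit activity in cultured cells read with subunit-selective fluorogenic Rh110 substrates: (LLE)2 for β1c, (PAL)2 for β1i, (KQL)2 for β2c/2i, (WLA)2 for β5c. Cells exposed to 4-fold serially diluted compound (top 20 μM) 30 min at 37 °C, then substrate 120 min at room temperature; fluorescence 500/519 nm.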

β 2c/2i (trypsin-like) = assay: Cell-Based Proteasome subunit activity/selectivity assay, β2c/2i, substrate (KQL)2Rh110; settings: Ramos cells; substrate (KQL)2Rh110 (β2c/2i); highest concentration tested 20 μM
Outline: as §1

[4] = molecular target: T2, β5c (chymotrypsin-like activity) (Homo sapiens, UniProt P20618+P28074); assay: Cell-Based Proteasome subunit activity/selectivity assay, β5c, substrate (WLA)2Rh110; settings: Ramos cells; substrate (WLA)2Rh110 (β5c); highest concentration tested 20 μM; read-out: Ic50:ramos:rh110-(wla)2
T2 construct: protease activity associated with the proteasome complex in cultured cells; endogenous in cells; host or cells: Ramos cells
Outline: as §1

β 1i (caspase-like) = molecular target: T3, β 1i (caspase-like) (Homo sapiens, UniProt P28065+P40306); assay: Cell-Based Proteasome subunit activity/selectivity assay, β1i, substrate (PAL)2Rh110; settings: Ramos cells; substrate (PAL)2Rh110 (β1i); highest concentration tested 20 μM; read-out: Ic50:ramos:rh110-(pal)2
T3 construct: protease activity associated with the proteasome complex in cultured cells; endogenous in cells; host or cells: Ramos cells
Outline: as §1

[5] = molecular target: T4, β 5i (chymotrypsin-like activity) (Homo sapiens, UniProt P20618+P28062); assay: Cell-Based Proteasome subunit activity/selectivity assay, β5i, substrate (ANW)2Rh110; settings: Ramos cells; substrate (ANW)2Rh110 (β5i); highest concentration tested 20 μM; read-out: Ic50:ramos:ac-(anw)2-r110
T4 construct: protease activity associated with the proteasome complex in cultured cells; endogenous in cells; host or cells: Ramos cells
Outline: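 Cell-based fluorogenic assay measuring chymotrypsin-like β5i proteasome activity using the substrate (ANW)2Rh110. Cultured cells received 0.5 μl of 100× 4-fold serial diluted compounds or DMSO per well, were incubated 30 minutes at 37° C, then equilibrated 15 minutes at room temperature. After shaking one minute @ 700 rpm and 120 min room-temperature incubation, fluorescence was read at 500 nm excitation/519 nm emission on an Envision reader.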

| SMILES | IC50 (β 1c (caspase-like)) | IC50 (β 2c/2i (trypsin-like)) | IC50 [4] | IC50 (β 1i (caspase-like)) | IC50 [5] | inflammation and tissue destruction [1] | block of Th1/17 differentiation, B cell effector functions and production of inflammatory cytokines (IL-6, TNF-α, IL-23) [2] | disease score [3] | disease progression (MRL/lpr lupus-prone mice) | plasma cells numbers and levels of anti-dsDNA IgG (MRL/lpr lupus-prone mice) |
| --- | --- | --- | --- | --- | --- | --- | --- | --- | --- | --- |
| COc1ccc(C[C@H](NC(=O)[C@H](C)NC(=O)CN2CCOCC2)C(=O)N[C@@H](Cc2ccccc2)C(=O)[C@@]2(C)CO2)cc1 [PR-957] | – | – | – | – | – | reduced inflammation and tissue destruction | potently block | significantly decrease disease score | prevented disease progression | reduced plasma cells numbers and levels of anti-dsDNA IgG |
| CCc1ccc(C(C#N)NC(=O)c2cn(CCNC(=O)c3ccc(C(F)(F)F)cc3F)cn2)cc1 (stereo not drawn) [Example 94, 1-[2-(2-Fluoro-4-trifluoromethyl-benzoylamino)-ethyl]-1H-imidazole-4-carboxylic acid [cyano-(4-ethyl-phenyl)-methyl]-amide] | ≥ 20 µM | ≥ 20 µM | ≥ 20 µM | ≥ 20 µM | 1.01 µM | – | – | – | – | – |
| CCc1ccc(C(C#N)NC(=O)c2cn(CCNC(=O)C3=C(C)c4ccccc4C3)nn2)cc1 (stereo not drawn) [Example 25, 1-{2-[(3-Methyl-1H-indene-2-carbonyl)-amino]-ethyl}-1H-[1,2,3]triazole-4-carboxylic acid [cyano-(4-ethyl-phenyl)-methyl]-amide] | ≥ 20 µM | ≥ 20 µM | ≥ 20 µM | ≥ 20 µM | 0.072 µM | – | – | – | – | – |
| COc1cc(C(F)(F)F)ccc1C(=O)NCCn1cc(C(=O)NC(C#N)c2ccc(C(F)(F)F)cc2)nn1 (stereo not drawn) [Example 72, 1-[2-(2-Methoxy-4-trifluoromethyl-benzoylamino)-ethyl]-1H-[1,2,3]triazole-4-carboxylic acid [cyano-(4-trifluoromethyl-phenyl)-methyl]-amide] | ≥ 20 µM | ≥ 20 µM | ≥ 20 µM | ≥ 20 µM | 0.524 µM | – | – | – | – | – |
| N#CC(NC(=O)c1cn(CCNC(=O)c2ccc(C(F)(F)F)cc2F)nn1)c1ccc(C(F)(F)F)cc1 (stereo not drawn) [Example 73, 1-[2-(2-Fluoro-4-trifluoromethyl-benzoylamino)-ethyl]-1H-[1,2,3]triazole-4-carboxylic acid [cyano-(4-trifluoromethyl-phenyl)-methyl]-amide] | ≥ 20 µM | ≥ 20 µM | ≥ 20 µM | ≥ 20 µM | 0.184 µM | – | – | – | – | – |
| COc1cc(OC(F)(F)F)ccc1C(=O)NCCn1cc(C(=O)NC(C#N)c2ccc(C(F)(F)F)cc2)nn1 (stereo not drawn) [Example 71, 1-[2-(2-Methoxy-4-trifluoromethoxy-benzoylamino)-ethyl]-1H-[1,2,3]triazole-4-carboxylic acid [cyano-(4-trifluoromethyl-phenyl)-methyl]-amide] | ≥ 20 µM | ≥ 20 µM | ≥ 20 µM | ≥ 20 µM | 5.59 µM | – | – | – | – | – |
| CCc1ccc(C(C#N)NC(=O)c2cn(CCNC(=O)c3cc(C(F)(F)F)ccc3F)nn2)cc1 (stereo not drawn) [Example 37, 1-[2-(2-Fluoro-5-trifluoromethyl-benzoylamino)-ethyl]-1H-[1,2,3]triazole-4-carboxylic acid [cyano-(4-ethyl-phenyl)-methyl]-amide] | ≥ 20 µM | ≥ 20 µM | ≥ 20 µM | ≥ 20 µM | 0.071 µM | – | – | – | – | – |
| CCc1ccc(C(C#N)NC(=O)c2cn(CCNC(=O)c3cccc(OC)n3)nn2)cc1 (stereo not drawn) [Example 26, 6-Methoxy-pyridine-2-carboxylic acid [2-(4-{[cyano-(4-ethyl-phenyl)-methyl]-carbamoyl}-[1,2,3]triazol-1-yl)-ethyl]-amide] | ≥ 20 µM | ≥ 20 µM | ≥ 20 µM | ≥ 20 µM | 5.38 µM | – | – | – | – | – |
| CCOc1ccc(C(=O)NCCn2cc(C(=O)NC(C#N)c3ccc(CC)cc3)nn2)nc1 (stereo not drawn) [Example 28, 5-Ethoxy-pyridine-2-carboxylic acid [2-(4-{[cyano-(4-ethyl-phenyl)-methyl]-carbamoyl}-[1,2,3]triazol-1-yl)-ethyl]-amide] | ≥ 20 µM | ≥ 20 µM | 13.3 µM | ≥ 20 µM | 0.933 µM | – | – | – | – | – |

Now from value to molecule, other results behind:

| IC50 (β 1c (caspase-like)) | IC50 (β 2c/2i (trypsin-like)) | IC50 [4] | IC50 (β 1i (caspase-like)) | IC50 [5] | SMILES | inflammation and tissue destruction [1] | block of Th1/17 differentiation, B cell effector functions and production of inflammatory cytokines (IL-6, TNF-α, IL-23) [2] | disease score [3] | disease progression (MRL/lpr lupus-prone mice) | plasma cells numbers and levels of anti-dsDNA IgG (MRL/lpr lupus-prone mice) |
| --- | --- | --- | --- | --- | --- | --- | --- | --- | --- | --- |
| ≥ 20 µM | ≥ 20 µM | 8.55 µM | ≥ 20 µM | 2.47 µM | CCc1ccc(C(C#N)NC(=O)c2cn(CC/N=C(\SC)c3ccc(OC)c(OC)c3OC)nn2)cc1 (stereo not drawn) [Example 87, N-[2-(4-{[Cyano-(4-ethyl-phenyl)-methyl]-carbamoyl}-[1,2,3]triazol-1-yl)-ethyl]-2,3,4-trimethoxy-thiobenzimidic acid methyl ester] | – | – | – | – | – |
| ≥ 20 µM | ≥ 20 µM | ≥ 20 µM | ≥ 20 µM | 1.74 µM | COc1ccc(C(=O)NCCn2cc(C(=O)NC(C#N)c3ccc(C(F)(F)F)cc3)nn2)c(F)c1 (stereo not drawn) [Example 74, 1-[2-(2-Fluoro-4-methoxy-benzoylamino)-ethyl]-1H-[1,2,3]triazole-4-carboxylic acid [cyano-(4-trifluoromethyl-phenyl)-methyl]-amide] | – | – | – | – | – |
| ≥ 20 µM | ≥ 20 µM | ≥ 20 µM | ≥ 20 µM | 0.682 µM | CCc1ccc(C(C#N)NC(=O)c2cn(CCNC(=O)c3cc(OC)ccc3F)nn2)cc1 (stereo not drawn) [Example 32, 1-[2-(2-Fluoro-5-methoxy-benzoylamino)-ethyl]-1H-[1,2,3]triazole-4-carboxylic acid [cyano-(4-ethyl-phenyl)-methyl]-amide] | – | – | – | – | – |
| ≥ 20 µM | ≥ 20 µM | ≥ 20 µM | ≥ 20 µM | 2.49 µM | CCc1ccc(C(C#N)NC(=O)c2cn(CCNC(=O)c3ccc(OC)c(OC)c3OC)nn2)nc1 (stereo not drawn) [Example 63, 1-[2-(2,3,4-Trimethoxy-benzoylamino)-ethyl]-1H-[1,2,3]triazole-4-carboxylic acid [cyano-(5-ethyl-pyridin-2-yl)-methyl]-amide] | – | – | – | – | – |
| ≥ 20 µM | ≥ 20 µM | ≥ 20 µM | ≥ 20 µM | 4.02 µM | COc1ccc(C(=O)NCCn2cc(C(=O)NC(C#N)c3cccc(SC)c3)nn2)c(OC)c1OC (stereo not drawn) [Example 55, 1-[2-(2,3,4-Trimethoxy-benzoylamino)-ethyl]-1H-[1,2,3]triazole-4-carboxylic acid [cyano-(3-methylsulfanyl-phenyl)-methyl]-amide] | – | – | – | – | – |
| 19.1 µM | ≥ 20 µM | 8.3 µM | ≥ 20 µM | 5.68 µM | COc1ccc(C(=O)NCCn2cc(C(=O)NC(C#N)c3ccc(OCc4ccccc4)cc3)nn2)c(OC)c1OC (stereo not drawn) [Example 56, 1-[2-(2,3,4-Trimethoxy-benzoylamino)-ethyl]-1H-[1,2,3]triazole-4-carboxylic acid [(4-benzyloxy-phenyl)-cyano-methyl]-amide] | – | – | – | – | – |
